In patent publication US20230365566A1, “HETEROCYCLIC AMIDES AND THEIR USE FOR MODULATING SPLICING” (REMIX THERAPEUTICS INC., priority 2020, published 2023) one finds AC50 and IC50 data, which are given here for 19 compounds.

Type in all cases: cell-based
The subject of test [1] is HTT mRNA alternative junction (AJ). The test is described as follows: Splicing RT-qPCR assay, increase of HTT alternative junction (AJ) mRNA. The conditions noted are these: A673 or K562 cells, 24 hours compound treatment, concentration having 50% response in AJ increase. In short, it runs like this:
(§1)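 A673 (DMEM, 10% FBS) or K562 (IMDM, 10% FBS) cells exposed 24 h at 37 °C to an 11-point 3-fold series, top dose 10 uM final, DMSO ≤0.25%. Lysates assayed by RT-qPCR for HTT CJ and AJ, normalized to GAPDH, GUSB or PPIA and DMSO control via 2^(−ΔΔCt).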

Test [2] relates to HTT mRNA canonical junction (CJ). The test is described as follows: Splicing RT-qPCR assay, decrease of HTT canonical junction (CJ) mRNA. The conditions noted are these: A673 or K562 cells, 24 hours compound treatment, concentration having 50% response in CJ decrease. In short, it runs like this:
as §1

The test system of another test is HTT CJ mRNA. The test can be described thus: Gene panel canonical junction qPCR assay, HTT. The conditions noted are these: protocol of Example 42, read-out: HTT IC50 (decrease in CJ mRNA levels). The gist of the method:
(§2)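 A673 or K562 cells treated 24 h at 37° C with 11-point 3-fold dilutions (top 10 uM, DMSO ≤0.25%). Canonical junction mRNA quantified by RT-qPCR, normalized to GAPDH, GUSB or PPIA and DMSO control (2^(−ΔΔCt)). 4-parameter logistic fit gives IC50 for CJ decrease.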

The test system of the next test is SMN2 CJ mRNA. The test is described as follows: Gene panel canonical junction qPCR assay, SMN2. The conditions noted are these: protocol of Example 42, read-out: SMN2 IC50 (decrease in CJ mRNA levels). In short, it runs like this:
as §2
Background: Quantitative PCR measures a nucleic acid by following its amplification.

Another test relates to Target C CJ mRNA. The test is described as follows: Gene panel canonical junction qPCR assay, Target C. The conditions noted are these: protocol of Example 42, read-out: Target C IC50 (decrease in CJ mRNA levels). In short, it runs like this:
as §2

A word on the AC50: it is the concentration at which the activity in the assay is half-maximal. The low end stands for activity at low concentration, the high end for activity only at high concentration. For orientation: pIC50 means the IC50 on a negative log10 scale, so that one unit is a factor of ten.

SMILES strings stand for the structures. pIC50: −log10 of the molar value.

Regarding `Cc1cn2cc(NC(=O)c3ccc(N4CCNCC4)c4cc(C)oc34)c(C)cc2n1` [Compound 262], the AC50 in test [1] and in test [2] was over 10 µM each time. The results for the negative-log IC50 (pIC50) with HTT CJ mRNA, in the test with SMN2 CJ mRNA and in the test with Target C CJ mRNA were under 5.00, over 7.00 and under 5.00, respectively.

Consider `Cc1cn2cc(NC(=O)c3ccc(N4CCNCC4)c4cc(C)oc34)ncc2n1` [Compound 263], for which the concentration at half-maximal activity (AC50) in test [1] and in test [2] was 1 to 10 µM in each case. Besides, the negative-log IC50 (pIC50) in the test on HTT CJ mRNA is 5.00 to 6.00; in the test on SMN2 CJ mRNA, over 7.00; with Target C CJ mRNA, 5.00 to 6.00.

Take `Cc1cn2nc(NC(=O)c3ccc(N4CCNCC4)c4cc(C)oc34)nc2c(C)n1` [Compound 264]: the AC50 in test [1] and in test [2] was over 10 µM each time. Also, the pIC50 in the test on HTT CJ mRNA, in the test with SMN2 CJ mRNA and in the test with Target C CJ mRNA was under 5.00 throughout.

For the compound `Cc1cn2nc(NC(=O)c3ccc(N4CCNCC4)c4cc(C)oc34)cc2c(C)n1` [Compound 265], the half-maximal activity concentration (AC50) in test [1] and in test [2] was over 10 µM throughout. Further, the negative logarithm of the IC50 (pIC50) was under 5.00 with HTT CJ mRNA, 5.00 to 6.00 in the test with SMN2 CJ mRNA and under 5.00 with Target C CJ mRNA.

On to `Cc1cn2cc(NC(=O)c3ccc(N4CCNCC4)c4cc(C)oc34)cc(Cl)c2n1` [Compound 266], for which the half-maximal activity concentration (AC50) in test [1] and in test [2] was 1 to 10 µM throughout. Besides, the values for the negative logarithm of the IC50 (pIC50) in the test on HTT CJ mRNA, with SMN2 CJ mRNA and with Target C CJ mRNA were 5.00 to 6.00, over 7.00 and under 5.00, respectively.

As to `Cc1cn2cc(NC(=O)c3ccc(N4CCNCC4)c4cc(C)oc34)cc(C)c2n1` [Compound 267], the AC50 is 1 to 10 µM in test [1] and over 10 µM in test [2]. The pIC50 in the test on HTT CJ mRNA is under 5.00; in the test with SMN2 CJ mRNA, over 7.00; with Target C CJ mRNA, under 5.00.

On to `Cc1cc2c(N3CCNCC3)ccc(C(=O)Nc3cn[nH]c3)c2o1` [Compound 268], for which the AC50 in test [1] and in test [2] was over 10 µM throughout. For the same compound, the pIC50 in the test with HTT CJ mRNA, in the test with SMN2 CJ mRNA and in the test with Target C CJ mRNA was under 5.00 in each case.

As for `Cc1cn2cc(NC(=O)c3ccc(N4CCNCC4)c4cn(C)nc34)cc(Cl)c2n1` [Compound 269], the half-maximal activity concentration (AC50) in test [1] and in test [2] was 0.1 to 1 µM each time. In addition, the negative logarithm of the IC50 (pIC50) is 6.00 to 7.00 in the test on HTT CJ mRNA, over 7.00 in the test on SMN2 CJ mRNA and 5.00 to 6.00 in the test on Target C CJ mRNA.

Consider `Cn1cc2c(N3CCNCC3)ccc(C(=O)Nc3cn[nH]c3)c2n1` [Compound 270], for which the half-maximal activity concentration (AC50) in test [1] and in test [2] was over 10 µM throughout. Also, the pIC50 with HTT CJ mRNA, in the test on SMN2 CJ mRNA and in the test with Target C CJ mRNA was under 5.00 each time.

Turning to `Cc1cn2cc(NC(=O)c3ccc(C4CC(C)(C)NC(C)(C)C4)c4cc(C)oc34)cc(F)c2n1` [Compound 271, N-[8-fluoro-2-methylimidazo[1,2-a]pyridin-6-yl]-2-methyl-4-(2,2,6,6-tetramethylpiperidin-4-yl)-1-benzofuran-7-carboxamide], the half-maximal activity concentration (AC50) in test [1] and in test [2] was over 10 µM each time. Further, the negative logarithm of the IC50 (pIC50) in the test on HTT CJ mRNA is under 5.00; in the test with SMN2 CJ mRNA, 6.00 to 7.00; with Target C CJ mRNA it was under 5.00.

Take `Cc1cn2cc(NC(=O)c3ccc(N4CCC(N5CCCC5)C4)c4cn(C)nc34)cc(F)c2n1` (centres unmarked) [Compound 272]: the half-maximal activity concentration (AC50) in test [1] and in test [2] was 0.1 to 1 µM each time. The pIC50 with HTT CJ mRNA was 6.00 to 7.00; with SMN2 CJ mRNA, over 7.00; in the test with Target C CJ mRNA it was 6.00 to 7.00.

For the compound `Cc1cn2cc(NC(=O)c3ccc(N4CCNCC4)c4cn(C)nc34)nc2c(C)n1` [Compound 273], the AC50 in test [1] and in test [2] was over 10 µM throughout. For the same compound, the negative-log IC50 (pIC50) was under 5.00 in the test on HTT CJ mRNA, over 7.00 in the test on SMN2 CJ mRNA and under 5.00 in the test on Target C CJ mRNA.

For the compound `Cc1cn2cc(NC(=O)c3ccc(N4CC(C)(C)NC(C)(C)C4)c4cn(C)nc34)cc(F)c2n1` [Compound 274], the AC50 in test [1] is over 10 µM; in test [2], 1 to 10 µM. The negative logarithm of the IC50 (pIC50) was 5.00 to 6.00 with HTT CJ mRNA, over 7.00 in the test on SMN2 CJ mRNA and under 5.00 in the test with Target C CJ mRNA.

As to `Cc1cn2cc(NC(=O)c3ccc(N4CCNCC4)c4cn(C)nc34)cc(C(F)(F)F)c2n1` [Compound 275], the concentration at half-maximal activity (AC50) in test [1] and in test [2] was 1 to 10 µM in each case. Besides, the pIC50 was 5.00 to 6.00 in the test with HTT CJ mRNA, over 7.00 with SMN2 CJ mRNA and under 5.00 in the test with Target C CJ mRNA.

For the compound `Cc1cn2cc(NC(=O)c3ccc(N4CCNC(C)C4)c4cn(C)nc34)cc(Cl)c2n1` (centres unmarked) [Compound 277, N-{8-chloro-2-methylimidazo[1,2-a]pyridine-6-yl}-2-methyl-4-(3-methylpiperazin-1-yl)indazole-7-carboxamide], the concentration at half-maximal activity (AC50) in test [1] and in test [2] was 0.1 to 1 µM throughout. The negative-log IC50 (pIC50) was 6.00 to 7.00 with HTT CJ mRNA, over 7.00 in the test on SMN2 CJ mRNA and 5.00 to 6.00 in the test with Target C CJ mRNA.

As to `Cc1cn2cc(NC(=O)c3ccc(N4CCC(N(C)C)C4)c4cn(C)nc34)cc(Cl)c2n1` (centres unmarked) [Compound 278, N-{8-chloro-2-methylimidazo[1,2-a]pyridin-6-yl}-4-[3-(dimethylamino)pyrrolidin-1-yl]-2-methylindazole-7-carboxamide], the AC50 in test [1] and in test [2] was 1 to 10 µM each time. The negative logarithm of the IC50 (pIC50) in the test with HTT CJ mRNA is 5.00 to 6.00; with SMN2 CJ mRNA, over 7.00; with Target C CJ mRNA, 5.00 to 6.00.

Take `Cc1cn2cc(NC(=O)c3ccc(N4C[C@H]5CC[C@@H](C4)N5)c4cn(C)nc34)cc(Cl)c2n1` [Compound 279, N-{8-chloro-2-methylimidazo[1,2-a]pyridin-6-yl}-4-[(1R,5S)-3,8-diazabicyclo[3.2.1]octan-3-yl]-2-methylindazole-7-carboxamide]: the half-maximal activity concentration (AC50) in test [1] and in test [2] was 1 to 10 µM in each case. For the same compound, the pIC50 was 5.00 to 6.00 in the test with HTT CJ mRNA, over 7.00 in the test on SMN2 CJ mRNA and under 5.00 with Target C CJ mRNA.

For the compound `Cc1cn2cc(-c3ccc(C(=O)NC4CCNCC4)c4nn(C)cc34)cc(F)c2n1` [Compound 280, 4-{8-fluoro-2-methylimidazo[1,2-a]pyridin-6-yl}-2-methyl-N-(piperidin-4-yl)indazole-7-carboxamide], the concentration at half-maximal activity (AC50) in test [1] and in test [2] was 1 to 10 µM each time. Also, the negative-log IC50 (pIC50) with HTT CJ mRNA was 5.00 to 6.00; in the test with SMN2 CJ mRNA, 5.00 to 6.00; with Target C CJ mRNA, under 5.00.

Take `Cc1cn2nc(-c3ccc(C(=O)NC4CCNCC4)c4nn(C)cc34)cc(C)c2n1` [Compound 281, 4-{2,8-dimethylimidazo[1,2-b]pyridazin-6-yl}-2-methyl-N-(piperidin-4-yl)indazole-7-carboxamide]: the concentration at half-maximal activity (AC50) in test [1] and in test [2] was 1 to 10 µM in each case. Besides, the pIC50 with HTT CJ mRNA was 5.00 to 6.00; with SMN2 CJ mRNA, 6.00 to 7.00; in the test with Target C CJ mRNA, 5.00 to 6.00.
